According to ChEMBL document CHEMBL3885861, “Open TG-GATES”:

Species: Rattus norvegicus
Assay: Open TG-GATES - Regimen: Daily Repeat
Assay type: toxicity, organism-based, Sprague-Dawley
Design: regimen Daily Repeat, gender Male, age 6 weeks
Conditions: in vivo, po, 30 mg/kg, route gavage, dose level Middle; for APTT / Bas / Eos / Fbg / Hb / Ht / Lym / MCH / MCHC / MCV / Mono / Neu / PT / Plat / RBC / Ret / WBC: tissue Blood; for KIDNEY_L / KIDNEY_R / KIDNEY_TOTAL: tissue Kidney; for LIVER: tissue Liver; for A/G / ALP / ALT / AST / BUN / CRE / Ca / Cl / DBIL / GLC / IP / K / LDH / Na / PL / RALB / TBIL / TC / TG / TP / gamma-GTP: tissue Plasma

## CN(C)CCN(Cc1cccs1)c1ccccn1
72 h, time 3 day
  TERMINAL_BW: 210.2 g
  APTT: 20.9 s
  Bas: 0%
  Eos: 0.6%
  Fbg: 325.4 mg/dL
  Hb: 13.2 g/dL
  Ht: 38.8%
  Lym: 80%
  MCH: 21.7 pg
  MCHC: 34%
  MCV: 63.8 fL
  Mono: 2%
  Neu: 16.4%
  PT: 15.9 s
  Plat: 116.7 x10_4/uL
  RBC: 609 x10_4/ul
  Ret: 6.1%
  WBC: 94.3 x10_2/uL
  KIDNEY_L: 1 g
  KIDNEY_R: 1 g
  KIDNEY_TOTAL: 2 g
  LIVER: 10.2 g
  A/G: 1.2
  ALP: 1737.4 IU/L
  ALT: 45.2 IU/L
  AST: 75.8 IU/L
  BUN: 15 mg/dL
  CRE: 0.1 mg/dL
  Ca: 11 mg/dL
  Cl: 106.2 meq/L
  DBIL: 0 mg/dL
  GLC: 175.4 mg/dL
  IP: 7.7 mg/dL
  K: 4.3 meq/L
  LDH: 224.4 IU/L
  Na: 142 meq/L
  PL: 140.8 mg/dL
  RALB: 2.9 g/dL
  TBIL: 0.012 mg/dL
  TC: 72.6 mg/dL
  TG: 82 mg/dL
  TP: 5.4 g/dL
  gamma-GTP: 1.2 IU/L
[…], time 7 day
  TERMINAL_BW: 254.5 g
  APTT: 20.7 s
  Bas: 0%
  Eos: 0.8%
  Fbg: 304.2 mg/dL
  Hb: 13.2 g/dL
  Ht: 39.1%
  Lym: 78.6%
  MCH: 21.4 pg
  MCHC: 33.7%
  MCV: 63.5 fL
  Mono: 1.6%
  Neu: 18%
  PT: 15.9 s
  Plat: 120.9 x10_4/uL
  RBC: 617 x10_4/ul
  Ret: 6.3%
  WBC: 124 x10_2/uL
  KIDNEY_L: 1.1 g
  KIDNEY_R: 1.1 g
  KIDNEY_TOTAL: 2.2 g
  LIVER: 11.7 g
  A/G: 1.1
  ALP: 1578.6 IU/L
  ALT: 40.4 IU/L
  AST: 69.2 IU/L
  BUN: 17.6 mg/dL
  CRE: 0.2 mg/dL
  Ca: 10.7 mg/dL
  Cl: 107 meq/L
  DBIL: 0 mg/dL
  GLC: 170.4 mg/dL
  IP: 7 mg/dL
  K: 4.3 meq/L
  LDH: 132.4 IU/L
  Na: 144.4 meq/L
  PL: 134.4 mg/dL
  RALB: 2.9 g/dL
  TBIL: 0.012 mg/dL
  TC: 71.4 mg/dL
  TG: 64.8 mg/dL
  TP: 5.4 g/dL
  gamma-GTP: 1.8 IU/L
[…], time 14 day
  TERMINAL_BW: 275 g
  APTT: 21.4 s
  Bas: 0%
  Eos: 1%
  Fbg: 309.6 mg/dL
  Hb: 14.2 g/dL
  Ht: 41.2%
  Lym: 77.8%
  MCH: 20.5 pg
  MCHC: 34.4%
  MCV: 59.6 fL
  Mono: 2.4%
  Neu: 18.6%
  PT: 16.2 s
  Plat: 108.7 x10_4/uL
  RBC: 691.6 x10_4/ul
  Ret: 3.9%
  WBC: 110.7 x10_2/uL
  KIDNEY_L: 1.1 g
  KIDNEY_R: 1.2 g
  KIDNEY_TOTAL: 2.3 g
  LIVER: 11.9 g
  A/G: 1.1
  ALP: 1753 IU/L
  ALT: 54.4 IU/L
  AST: 98.2 IU/L
  BUN: 18.8 mg/dL
  CRE: 0.2 mg/dL
  Ca: 10.3 mg/dL
  Cl: 107.8 meq/L
  DBIL: 0.008 mg/dL
  GLC: 166.8 mg/dL
  IP: 6.8 mg/dL
  K: 4.1 meq/L
  LDH: 177.4 IU/L
  Na: 143.8 meq/L
  PL: 131.8 mg/dL
  RALB: 2.9 g/dL
  TBIL: 0.026 mg/dL
  TC: 70.2 mg/dL
  TG: 56 mg/dL
  TP: 5.5 g/dL
  gamma-GTP: 2 IU/L
[…], time 28 day
  TERMINAL_BW: 322.8 g
  APTT: 20.7 s
  Bas: 0%
  Eos: 1.4%
  Fbg: 282 mg/dL
  Hb: 14.6 g/dL
  Ht: 42.2%
  Lym: 74.2%
  MCH: 19.2 pg
  MCHC: 34.5%
  MCV: 55.5 fL
  Mono: 2.6%
  Neu: 21.4%
  PT: 16.1 s
  Plat: 106.9 x10_4/uL
  RBC: 760.6 x10_4/ul
  Ret: 2.7%
  WBC: 115.8 x10_2/uL
  KIDNEY_L: 1.3 g
  KIDNEY_R: 1.3 g
  KIDNEY_TOTAL: 2.5 g
  LIVER: 13.7 g
  A/G: 1.1
  ALP: 1511.8 IU/L
  ALT: 74.6 IU/L
  AST: 129.2 IU/L
  BUN: 17.6 mg/dL
  CRE: 0.2 mg/dL
  Ca: 10.3 mg/dL
  Cl: 107 meq/L
  DBIL: 0.008 mg/dL
  GLC: 169 mg/dL
  IP: 6.2 mg/dL
  K: 4.2 meq/L
  LDH: 182.2 IU/L
  Na: 141.8 meq/L
  PL: 140.4 mg/dL
  RALB: 3 g/dL
  TBIL: 0.022 mg/dL
  TC: 80 mg/dL
  TG: 39.4 mg/dL
  TP: 5.6 g/dL
  gamma-GTP: 2.8 IU/L
